# According to US10046052B2, “Method and formulation for cold treatment in adults and children with increased safety” (priority 2010, dated 2018):
# Read-outs that look alike come from different tables or passages of the source.
# Test system: patients with cold, cough and other symptoms of respiratory infection (Upper Respiratory Infection, URI/cold)
# Source text: Representative Samples of Clinical Cases of Patients of Varying Ages Treated by a Doctor, with Non or Minimally Sedating Antihistamines for Cold, Cough and Other Symptoms of Respiratory Infection:
smiles,measurement,setting,value
O=C(O)COCCN1CCN(C(c2ccccc2)c2ccc(Cl)cc2)CC1 (stereo not drawn) [Cetirizine],relief of URI symptoms,"Case 1: URI/cold, Cetirizine 10 mg QHS with Triamcinolone Nasal Spray",rapid relief of URI symptoms
same,relief of URI symptoms,"Case 2: same patient as Case 1, URI/cold and Bronchitis, Cetirizine 10 mg QHS, already taking Triamcinolone Nasal Spray",rapid relief of URI symptoms
same,relief of URI symptoms,"Case 3: same patient as Case 1, URI/cold, Cetirizine 10 mg QHS",rapid relief of URI symptoms
same,relief of URI symptoms,"Case 8: URI/cold/Allergic Rhinitis, Cetirizine 10 mg QHS",rapid relief of URI symptoms
same,relief of URI and Bronchitis symptoms,"Case 9: same patient as Case 8, URI/cold/Bronchitis, Allergic Rhinitis, Cetirizine 10 mg QHS and Amoxicillin Clavulanate",rapid relief of URI and Bronchitis symptoms
same,relief of URI symptoms,"Case 14: URI, Cetirizine Liquid 2.5 mg QHS",rapid relief of URI symptoms
CC(C)(C(=O)O)c1ccc(C(O)CCCN2CCC(C(O)(c3ccccc3)c3ccccc3)CC2)cc1 (stereo not drawn) [Fexofenadine],relief of URI symptoms,"Case 4: URI/cold, Fexofenadine 180 mg QD with Triamcinolone Nasal Spray",rapid relief of URI symptoms
same,relief of Pharyngitis and Bronchitis symptoms,"Case 10: Pharyngitis, Asthma, COPD, Fexofenadine 180 mg QD, Amoxicillin Clavulanate, Prednisone",rapid relief of Pharyngitis and Bronchitis symptoms
same,relief of URI and Sinusitis symptoms,"Case 11: URI/cold, rule out Sinusitis, Fexofenadine 60 mg BID, Amoxicillin Clavulanate",rapid relief of URI and Sinusitis symptoms
same,relief of URI symptoms,"Case 12: same patient as Case 11, Allergic Rhinitis/URI/cold, Fexofenadine 60 mg BID",rapid relief of URI symptoms
same,relief of URI symptoms,"Case 13: same patient as Cases 11 and 12, URI/cold, Fexofenadine 60 mg BID",rapid relief of URI symptoms
O=C(O)COCCN1CCN([C@H](c2ccccc2)c2ccc(Cl)cc2)CC1 [Levocetirizine],relief of URI symptoms,"Case 5: child, URI/cold, Levocetirizine 2.5 mg at bedtime, Carbinoxamine with Dextromethorphan discontinued",rapid relief of URI symptoms
same,relief of cough,"Case 6: same patient as Case 5, URI/cold, resumed Levocetirizine 2.5 mg at bedtime",rapid relief of cough
same,relief of URI symptoms,"Case 7: same patient as Case 6, Pharyngitis, URI/cold, Levocetirizine 2.5 mg at bedtime, using Mometasone Nasal Spray, asthma inhaler, Montelukast",rapid relief of URI symptoms
CCOC(=O)N1CCC(=C2c3ccc(Cl)cc3CCc3cccnc32)CC1 [Loratidine],relief of URI symptoms,"Case 15: URI/Pharyngitis, Loratidine 10 mg QD, Azithromycin prescribed by Pediatrician",rapid relief of URI symptoms
